# In patent publication US20110313672A1, “CELLULAR ANTIOXIDANT ACTIVITY (CAA) ASSAY” (CORNELL UNIVERSITY, priority 2007, published 2011):
# Where “and” joins values, the source holds several entries; their conditions need not be identical. Equal values may be shown once. Entries after “also recorded” stand apart in the source; their conditions may differ. Read-outs that look alike come from different tables or passages of the source.
# Key:
# [1] = Oxygen radical absorbance capacity (ORAC) assay; conditions: Example 3, flavonoids, mean ± SD, n ≧ 3
# Experimental: The peroxyl radical scavenging efficacy of selected fruits was measured using the ORAC assay (Prior, R. L., et al (2003) J. Agric. Food Chem. 51:3273-3279). Briefly, 20 μL of blank, Trolox standard, or fruit extracts in 75 mM potassium phosphate buffer, pH 7.4 (working buffer), was added to triplicate wells in a black, clear-bottom, 96-well microplate. The triplicate samples were distributed throughout the microplate and were not placed side-by-side, to avoid any effects on readings due to location. In addition, no outside wells were used, as use of those wells results in greater variation. A volume of 200 μL of 0.96 μM fluorescein in working buffer was added to each well and incubated at 37° C. for 20 min, with intermittent shaking, before the addition of 20 μL of freshly prepared 119 mM ABAP in working buffer using a 12-channel pipetter. The microplate was immediately inserted into a Fluoroskan Ascent FL plate reader (ThermoLabsystems) at 37° C. The decay of fluorescence at 538 nm was measured with excitation at 485 nm every 4.5 min for 2.5 h. The areas under the fluorescence versus time curve for the samples minus the area under the curve for the blank were calculated and compared to a standard curve of the areas under the curve for 6.25, 12.5, 25, and 50 μM Trolox standards minus the area under the curve for blank. ORAC values were expressed as mean micromoles of Trolox equivalents (TE) per 100 g of fruit±SD for triplicate data from one experiment.
# ORAC measurements were performed as described herein in Example 2.
# HepG2 cells = experiment: Cellular antioxidant activity (CAA) assay: inhibition of peroxyl radical-induced DCFH oxidation; assay type: cell-based, human; conditions: for CAA value: Example 1, pure compounds, EC50 converted to quercetin equivalents
# Experimental: Cells (e.g., human hepatocellular carcinoma cells; HepG2) are seeded at a density of e.g., 6×10^4/well on a 96-well microplate in 100 μL growth medium/well. It is preferred that only the inside wells of e.g., a 96-well microplate are used for the assay, since the outer wells have increased variation compared to that of the inner wells. Twenty-four hours after seeding the growth medium is removed and the wells are washed with PBS. Triplicate wells are treated for 1 h with 100 μL of a test compound (e.g., pure phytochemical compounds or fruit extracts) plus 25 μM DCFH-DA dissolved in treatment medium.
# 600 μM ABAP is then applied to the cells in 100 μL HBSS and the 96-well microplate is placed into a plate reader e.g., Fluoroskan Ascent FL plate-reader (ThermoLabsystems, Franklin, Mass.) at 37° C. Emission at 538 nm is measured with excitation at 485 nm, for example every 5 min for 1 h. Each plate should include triplicate control and blank wells: control wells contain cells treated with DCFH-DA and oxidant; blank wells contain cells treated with dye and HBSS without oxidant.
# A test compound is assayed in multiple wells of e.g., a 96-well cell culture plate. Some wells are washed with 100 μL of phosphate-buffered saline (PBS) prior to the addition of ABAP, while other wells were not washed prior to the addition of ABAP. It was noted that the measured antioxidant activity of some fruit extracts (e.g., blueberries) was different when a PBS wash was used compared to when there was no PBS wash (see Table 2; FIGS. 3 and 4). This is likely due to non-specific binding of certain antioxidant compounds to the outer membrane, or a reduced uptake of the compound, thus the ratio of antioxidant activity values obtained with a PBS wash compared to a non-PBS wash indicates the bioavailability of the test compound. In order to accurately measure the intracellular antioxidant activity of a test compound, a PBS wash prior to the addition of a peroxyl initiator (e.g, ABAP) is necessary. The values obtained for cells assayed using a PBS wash should be compared to values obtained for the same cells assayed without a PBS wash. One of skill in the art can plan and perform experiments on a test compound in the presence and absence of a PBS wash, in order to accurately assess the intracellular antioxidant capacity of the test compound.
# After blank subtraction from the fluorescence readings, the area under the curve of fluorescence versus time is integrated to calculate the cellular antioxidant activity (CAA) value at each concentration of pure phytochemical compound or fruit extract as follows:
# where ∫SA is the integrated area under the sample fluorescence versus time curve and ∫CA is the integrated area from the control curve. The median effective dose (EC50) was determined for the pure phytochemical compounds and fruit extracts from the median effect plot of log (fa/fu) vs. log (dose), where fa is the fraction affected and fu is the fraction unaffected by the treatment. To quantify intra-experimental variation, the EC50 values are stated as mean±SD for triplicate sets of data obtained from the same experiment. Inter-experimental variation is obtained for some representative pure phytochemical compounds and fruit extracts by averaging the fluorescence values from triplicate wells in each trial to obtain one EC50 value per experiment and calculating the mean±SD for at least four trials. In each experiment, a standard is used, for example quecetin, thus permitting the cellular antioxidant activities for a test compounds to be expressed as μmol quercetin equivalents (QE)/100 μmol compound. Fruit extracts are expressed as μmol QE/100 g fruit. In order to compare the antioxidant quality of different fruits, cellular antioxidant activity (CAA) is also calculated as μmol QE/100 μmol total phenolics.
# Human hepatocellular carcinoma HepG2 cells were seeded at a density of 6×10^4/well on a 96-well microplate in 100 μL growth medium/well. […]
# [2] = Example 3, Table 7, no PBS wash
# [3] = Homo sapiens, HepG2, Example 3, Table 7, PBS wash, flavonoids, mean ± SD, n=3, read-out: EC50
# [4] = Homo sapiens, HepG2, Example 3, Table 7, no PBS wash, flavonoids, mean ± SD, n=3, read-out: EC50
# [5] = Homo sapiens, HepG2, Example 1, Table 1, PBS wash, pure phytochemical compounds, mean ± SD, n=3, read-out: EC50 for inhibition of peroxyl radical-induced DCFH oxidation
# [6] = Homo sapiens, HepG2, Example 1, Table 1, no PBS wash, pure phytochemical compounds, mean ± SD, n=3, read-out: EC50 for inhibition of peroxyl radical-induced DCFH oxidation
# [7] = CAA assay, either protocol or protocol not specified
# [8] = Example 3, Table 7, PBS wash, flavonoids, mean ± SD, n=3
# [9] = Example 3, Table 7, no PBS wash, flavonoids, mean ± SD, n=3
EC50 (HepG2 cells; [3]),EC50 (HepG2 cells; [4]),EC50 (HepG2 cells; [5]),EC50 (HepG2 cells; [6]),SMILES,ORAC [1],"CAA (HepG2 cells; Example 3, Table 7, PBS wash)",CAA (HepG2 cells; [2]),"cellular antioxidant activity, result in words (HepG2 cells; [7])",further results
27.7 ± 2 µM,23.8 µM,23.1 ± 1 µM,26.1 ± 0.26 µM,"O=c1cc(-c2ccc(O)c(O)c2)oc2cc(O)cc(O)c12 [Luteolin, luteolin]",8.55 ± 0.85 cde μmol of TE/μmol,29.5 ± 2.1 μmol of QE/100 μmol,37.1 ± 0.0 μmol of QE/100 μmol,–,CAA value (HepG2 cells; PBS wash): 22.2 ± 1 µmol QE/100 µmol; CAA value (HepG2 cells; no PBS wash): 22.6±0.2 μmol QE/100 μmol
> 200 µM,> 200 µM,> 150 µM,> 150 µM,"O=C1c2c(O)cc(O)cc2O[C@H](c2ccc(O)c(O)c2)[C@H]1O [Taxifolin, taxifolin]",9.74 ± 1.20 bcd μmol of TE/μmol,–,–,low or no cellular antioxidant activity; also recorded: low CAA,"cellular antioxidant activity, result in words (HepG2 cells; PBS wash protocol): low activity at the concentrations tested; cellular antioxidant activity, result in words (HepG2 cells; no PBS wash protocol): activity only at doses much higher than their cytotoxic concentrations; also recorded: low, but unquantifiable, activity; also recorded: low but unquantifiable activity"
43.9 ± 4.3 µM,27.6 ± 1.8 µM,–,–,O=c1c(O)c(-c2ccc(O)cc2O)oc2cc(O)cc(O)c12 [morin],6.12±1.95 μmol of TE/μmol and 6.12 ± 1.95 efg μmol of TE/μmol,18.6 ± 18 μmol of QE/100 μmol,32.1 ± 2.1 μmol of QE/100 μmol,–,"EC50 (HepG2 cells; Homo sapiens, HepG2, Example 3, text b252, PBS wash, read-out: EC50): 43.9 ± 0.43 µM; EC50 (HepG2 cells; Homo sapiens, HepG2, Example 3, text b252, no PBS wash, read-out: EC50): 27.6 ± 1.8 µM"

# More lines, now with the values behind:
SMILES,EC50 (HepG2 cells; [3]),EC50 (HepG2 cells; [4]),EC50 (HepG2 cells; [5]),EC50 (HepG2 cells; [6]),ORAC [1],"CAA (HepG2 cells; Example 3, Table 7, PBS wash)",CAA (HepG2 cells; [2]),"cellular antioxidant activity, result in words (HepG2 cells; [7])",further results
"O=C(O[C@@H]1Cc2c(O)cc(O)cc2O[C@@H]1c1ccc(O)c(O)c1)c1cc(O)c(O)c(O)c1 [ECG, (−)-epicatechin gallate]",25.6 ± 1.8 µM,14.2 ± 0.4 µM,–,–,7.71 ± 1.57 cde μmol of TE/μmol,31.9 ± 2.2 μmol of QE/100 μmol,62.1 ± 1.9 μmol of QE/100 μmol,–,–
"Oc1cc(O)c2c(c1)O[C@H](c1cc(O)c(O)c(O)c1)[C@H](O)C2 [EGC, (−)-epigallocatechin]",> 100 µM,74.2 ± 12.9 µM,–,–,3.11±0.73 μmol of TE/μmol and 3.11 ± 0.73 cde μmol of TE/μmol,–,12.1 ± 2.2 μmol of QE/100 μmol,–,"cellular antioxidant activity, result in words (HepG2 cells; PBS wash protocol): low activity at the concentrations tested"
"O=c1c(O)c(-c2ccc(O)cc2)oc2cc(O)cc(O)c12 [Kaempferol, kaempferol]",9.57 ± 0.27 µM,11.9 ± 0.8 µM,6.31 ± 0.21 µM,7.85 ± 0.51 µM,7.19 ± 1.29 def μmol of TE/μmol,85.1 ± 2.4 μmol of QE/100 μmol,74.6 ± 4.8 μmol of QE/100 μmol,–,CAA value (HepG2 cells; PBS wash): 81.1 ± 2.7 µmol QE/100 µmol; CAA value (HepG2 cells; no PBS wash): 75.3±4.7 μmol QE/100 μmol
"O=c1c(O)c(-c2cc(O)c(O)c(O)c2)oc2cc(O)cc(O)c12 [Myricetin, myricetin]",70.7 ± 4.2 µM,31.1 ± 1 µM,15.4 ± 0.5 µM,16.1 ± 1.7 µM,4.55±0.50 μmol of TE/μmol and 4.55 ± 0.50 fgh μmol of TE/μmol,11.5 ± 0.7 μmol of QE/100 μmol,28.4 ± 0.9 μmol of QE/100 μmol,–,"CAA value (HepG2 cells; PBS wash): 33.1 ± 1 µmol QE/100 µmol; CAA value (HepG2 cells; no PBS wash): 36.8±3.8 μmol QE/100 μmol; EC50 (HepG2 cells; Homo sapiens, HepG2, Example 3, text, no PBS wash, read-out: EC50): 31.1 ± 1 µM"
"O=c1c(O[C@@H]2O[C@H](CO)[C@@H](O)[C@H](O)[C@H]2O)c(-c2ccc(O)c(O)c2)oc2cc(O)cc(O)c12 [Q-3-G, quercetin-3-β-D-glucoside]",–,–,–,–,8.11 ± 1.86 cde μmol of TE/μmol,6.6 ± 0.1 μmol of QE/100 μmol,7.7 ± 0.1 μmol of QE/100 μmol,low amount of activity; also recorded: low or no cellular antioxidant activity,"EC50 (HepG2 cells; Example 3, Table 7, PBS wash, flavonoids, mean ± SD, n=3, read-out: EC50): 122 ± 1 µM; EC50 (HepG2 cells; Example 3, Table 7, no PBS wash, flavonoids, mean ± SD, n=3, read-out: EC50): 115 ± 2 µM"
"O=c1c(O)c(-c2ccc(O)c(O)c2)oc2cc(O)cc(O)c12 [Quercetin, quercetin]",7.71 ± 0.26 µM,8.93 ± 0.44 µM,–,5.92 ± 0.07 µM,8.04 ± 2.37 cde μmol of TE/μmol,105.7 ± 3.7 μmol of QE/100 μmol,99.1 ± 4.8 μmol of QE/100 μmol,–,"EC50 (HepG2 cells; Example 1, Table 1, PBS wash, pure phytochemical compounds, mean ± SD, n=3, read-out: EC50 for inhibition of peroxyl radical-induced DCFH oxidation): 5.09 ± 0.19 µM; EC50 (HepG2 cells; Homo sapiens, HepG2, Table 2, no PBS wash, mean ± SD over the trials, read-out: Interexperimental EC50): 5.89 ± 0.36 µM; EC50 (HepG2 cells; Homo sapiens, HepG2, Table 2, no PBS wash, one line per trial (trials 1-5), n=3, read-out: Intraexperimental EC50): 6.07 ± 0.25 µM; EC50 (HepG2 cells; Homo sapiens, HepG2, Table 3, PBS wash, mean ± SD over the trials, read-out: Interexperimental EC50): 5.12 ± 0.58 µM; EC50 (HepG2 cells; Homo sapiens, HepG2, Table 3, PBS wash, one line per trial (trials 1-5), n=3, read-out: Intraexperimental EC50): 4.48 ± 0.18 µM"
O=c1c(O)c(-c2ccccc2)oc2cc(O)cc(O)c12 [galangin],7.56 ± 0.46 µM,13.3 ± 0.2 µM,–,–,2.63 ± 1.31 gh μmol of TE/μmol,107.8 ± 6.4 μmol of QE/100 μmol,66.3 ± 1.1 μmol of QE/100 μmol,–,ORAC ([1]; listed as Galangin): 2.63±1.31 μmol of TE/μmol
O=c1c(-c2ccc(O)cc2)coc2cc(O)cc(O)c12 [genistein],–,–,–,–,13.4±2.8 μmol of TE/μmol and 13.4 ± 2.8 a μmol of TE/μmol,–,–,no cellular antioxidant activity; also recorded: no CAA,"cellular antioxidant activity, result in words (HepG2 cells; CAA assay, either protocol or protocol not specified, listed as Genistein): no activity; EC50 (HepG2 cells; [8]): no activity; EC50 (HepG2 cells; [9]): no activity"
O=C1C[C@@H](c2ccc(O)cc2)Oc2cc(O)cc(O)c21 [naringenin],–,–,–,–,9.23 ± 2.79 bcd μmol of TE/μmol,–,–,no activity; also recorded: no CAA,"EC50 (HepG2 cells; [8]): no activity; EC50 (HepG2 cells; [9]): no activity; cellular antioxidant activity, result in words (HepG2 cells; no PBS wash protocol): none"
